Measured values reported in ChEMBL document CHEMBL1268998, “Detection of Rap1A as a yessotoxin binding protein from blood cell membranes” (Bioorg Med Chem Lett, 2010).

Assays:
Type in all cases: cell membranes
[1] = molecular target: T1, Ras-related protein Rap-1A (Homo sapiens, UniProt P62834); assay: Binding affinity to RAP1A in human RBC membrane by Western blot analysis
T1 sequence (P62834 whole entry): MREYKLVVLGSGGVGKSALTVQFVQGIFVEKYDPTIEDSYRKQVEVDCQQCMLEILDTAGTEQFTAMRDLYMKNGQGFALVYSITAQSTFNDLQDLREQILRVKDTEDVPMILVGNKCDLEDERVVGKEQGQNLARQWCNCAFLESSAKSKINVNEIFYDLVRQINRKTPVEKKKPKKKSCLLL

[2] = molecular target: T1, Ras-related protein Rap-1A; assay: Binding affinity to RAP1A in human RBC membrane by surface plasmon resonance analysis
[3] = molecular target: T1, Ras-related protein Rap-1A; assay: Binding affinity to RAP1A in human RBC membrane by surface plasmon resonance analysis with inverted configuration

SMILES	Kd [1] [µM]	Kd [2] [µM]	Kd [3] [µM]
C=CCC(=C)/C=C/[C@@](C)(O)[C@H]1O[C@@H]2C[C@@H]3O[C@@H]4C[C@@H]5O[C@@H]6C[C@@H]7O[C@@H]8C[C@@H]9O[C@@H]%10C[C@@H]%11O[C@](C)(CCOS(=O)(=O)O)[C@@H](OS(=O)(=O)O)C[C@H]%11O[C@H]%10C[C@H]9O[C@H]8CC[C@@]7(C)O[C@@]6(C)CC[C@H](C)[C@H]5O[C@H]4C[C@@]3(C)O[C@H]2CC1=C [YESSOTOXIN]	4	4	
C=CCC(=C)/C=C/[C@@](C)(O)[C@H]1O[C@@H]2C[C@@H]3O[C@@H]4C[C@@H]5O[C@@H]6C[C@@H]7O[C@@H]8C[C@@H]9O[C@@H]%10C[C@@H]%11O[C@](C)(CCO)[C@@H](O)C[C@H]%11O[C@H]%10C[C@H]9O[C@H]8CC[C@@]7(C)O[C@@]6(C)CC[C@H](C)[C@H]5O[C@H]4[C@@H](O)[C@@]3(C)O[C@H]2CC1=C [DESULFO-YESSOTOXIN]			0.5
